Laboratory results: patent publication US7348330B2, “1-azabicyclo [2,2,2] octan-3-one derivatives” (Aprea AB, priority 2000, dated 2008)

Tests used:
p53-null Saos-2 cells = experiment: FACS analysis of apoptosis (sub-G1, propidium iodide); assay type: cell-based, human; design: dose or concentration left out as unconfirmed
Experimental: Induction of apoptosis was determined by FACS analysis of ethanol fixed cells stained with propidium iodide (PI) as percentage of a sub-G1 population. […] The percentage of dead cells in non-treated cultures and in controls treated with caspase inhibitors only was subtracted. […] Hoechst staining was used to stain cell nuclei. […] The percentage of apoptotic cells was measured by FACS analysis as it was described in Figure.
(§1) Cells were placed on 12-well plate at a density of 30000/cm^2 and treated with compounds. After 48 h incubation cells were harvested by trypsinization, fixed with 70% ethanol, treated with RNase A (0.25 mg/ml) and stained with propidium iodide (0.02 mg/ml). Samples were analyzed on a Becton Dickinson FACScan. Data were analyzed by the CellQuest software, version 3.2.1.

Saos-2-His-273 cells [1] = experiment: Colony formation assay; assay type: cell-based, human
Description: Colonies were stained with Giemsa and counted 14 days after seeding.
The cells were Giemsa stained and scored for the appearance of colonies after 14 days.

[2] = system: recombinant wild type and mutant p53 proteins; experiment: ELISA of p53 conformation upon heating 30 min at 37° C.; assay type: biochemical, human; conditions: for appearance of PAb240 epitope (unfolding) upon heating: 37° C.; for PAb1620 epitope after heating: 30 min at 37° C.; for DO-1 non-conformational epitope: incubation with compounds
Experimental: Absorbance of the control sample incubated on ice was taken as 100%.
20 ng of GST-wtp53, GST-mtp53-175 and GST-mtp53-248 were heated at 37° C. for 30 min or kept on ice. The procedure was performed with or without tested compounds. The ELISA analyses were done as described by (Foster et al., 1999). Briefly, after the treatment, samples were diluted with coating buffer (150 mM KCL, 25 mM HEPES) supplemented with 10 mM DTT. The whole mixture was apply to ELISA plates (MaxiSorp, Nunc) and incubated at +4° C. for 35 min. The wells were washed with coating buffer. The wells were blocked by 5% skim milk in PBS by incubating at +4° C. for 1 h. […] Samples were incubated at +4° C. for 30 min. Wells were rinsed twice with PBS. After that, a secondary antibody (anti-mouse, conjugated with horse radish peroxidase) was incubated with samples at +4° C. for 30 min. Then plates were washed 5 times with PBS and a peroxidase substrate was added. An absorbance at λ405 nm was monitored by ELISA reader.

[3] = system: KRC/Y renal carcinoma cells (Phe-176 mutant p53); experiment: FACS analysis of apoptosis; assay type: cell-based, human
Experimental: The percentage of apoptotic cells was detected by FACS analysis as it was described in FIG. 3A.
as §1
Thus, it appears that the defect caused by substitution of the Cys residue at position 176 is irreversible. The substitution of this Cys residue abolishes the binding of a Zn atom which holds together the DNA-binding loops of the p53 core domain. Therefore, the unfolding of this mutant p53 protein is probably too extensive to be restored.

[4] = target: T1, endogenous Trp-282 mutant p53 (Homo sapiens, UniProt P04637, R282W); experiment: Band shift assay, BL-60 cell extracts; assay type: biochemical; conditions: cell extracts from Burkitt lymphoma BL-60 cells
T1 construct: endogenous Trp-282 mutant p53 in cell extracts from Burkitt lymphoma BL-60 cells; endogenous in cells; host or cells: Burkitt lymphoma BL-60 cells (cell extract)

H1299-His-175 cells = experiment: Western blot of p53 target genes p21 and MDM2; assay type: cell-based, human
[5] = system: human tumor cell lines with different p53 status (p53 null, wild type p53, mutant p53); experiment: WST-1 growth suppression, series of tumor cell lines; assay type: cell-based
Description: In addition, mouse p53 null J3D T-cell lymphoma line was used.

Saos-2-His-273 cells [6] = experiment: WST-1 growth suppression assay; assay type: cell-based, human
Experimental: (§2) Saos-2-His-273 cell line stably transfected with construct allowing expression of mutant His-273 p53 in a tetracycline-dependent manner was used for screening (Selivanova et al., 1997). p53 expression was inhibited by incubation of cells with doxycycline (5 μg/ml). Cells were grown in 96-well plates at a density of 3000 cells per well with or without doxycycline and treated with 25 μM of the compounds from the NCI library of low molecular weight (LMW) compounds. After 48 hours of incubation the proliferative cell reagent WST-1 (Roche) was added to the cells. The degree of WST-1 reduction, which reflects cell viability, was measured by microplate reader at λ490 nm according to the manufacturer (Roche).
as §2, with “1997).” for “1997). p53 expression was inhibited by incubation of cells with doxycycline (5 μg/ml).”, “doxycycline. The treatment was done at a concentration of” for “doxycycline and treated with”, “each chemical” for “the compounds”, “is proportional to the” for “reflects”, “by a” for “by”
Saos-2-His-273 cells grown in the presence or absence of doxycycline and parental Saos-2 cells were treated with the structural analogs and analyzed as described above. The effect of structural analogs on cell growth was tested using different concentrations of the compounds, ranging from 2.5 to 25 μM. Compounds MIRA-2, MIRA-3 and PRIMA-2, PRIMA-3 were identified that were able to suppress the growth of Saos-2-His-273 cells expressing mutant p53 (tet−). […] In addition, compounds MIRA-2 and MIRA-3 suppressed the growth of cells in a mutant p53-dependent manner at 10 μM concentration, in contrast to 25 μM of compound MIRA-1 required for the selective effect.

[7] = Toxicity assessment in SCID mice; assay type: in vivo
Experimental: (§3) All animal studies were approved by the local animal ethical committee and animal care was in accordance with institutional guidelines. For toxicity assessment, 12 SCID mice (average weight 25 g) were divided in 4 groups. […] Control animals were injected with PBS. We measured weights of the mice for 1 month after the last injection. […] After 3 days the mice were divided into 4 groups. […] Injections were performed twice daily for 3 days. Tumor volume was measured during 2 months.
(§4) In the untreated control group, the average tumor volume after 59 days was 555.7±284 mm^3 (means±SE, n=3).

Saos-2-His-273 cells [8] = experiment: Anti-tumor activity, xenograft in SCID mice; assay type: in vivo; conditions: after 59 days
Experimental: SCID mice were injected with Saos-2-His-273 cells. […] Tumor volumes were measured once in three days for two months.
as §3, §4

[9] = absence of mutant p53 expression
[10] = cells expressing mutant p53, PRIMA-1 25 μM, MIRA-1 10 μM

CCC(=O)OCN1C(=O)C=CC1=O [MIRA-1]
induction of apoptosis (p53-null Saos-2 cells; 48 hours): not in p53-null Saos-2 cells | number of colonies, % of untreated control (Saos-2-His-273 cells [1]; 5 µM of compound, colonies after 14 days): 15% | appearance of PAb240 epitope (unfolding) upon heating [2]: able to prevent unfolding | PAb1620 epitope after heating [2]: preserve the conformation-dependent epitope | DO-1 non-conformational epitope [2]: not affected | induction of apoptosis compared to Saos-2-His-273 cells ([3]; 50 μM): much less prominent | restoration of sequence-specific DNA binding [4]: able to restore | induction of MDM2 and p21 (H1299-His-175 cells; [9]): did not cause any induction | induction of MDM2 and p21 (H1299-His-175 cells; [10]): solid induction of both MDM2 and p21 | growth suppression of mutant p53-expressing cells versus p53 null and wild type p53 cells [5]: more efficiently | concentration at which growth of mutant p53 containing cells is selectively suppressed (Saos-2-His-273 cells [6]; tet− vs tet+ and parental Saos-2, 48 hours, 2.5 to 25 μM tested): 25 µM

O=C1C2CCN(CC2)C1(CO)CO [PRIMA-1, 2,2-bis(hydroxymethyl)-1-azabicyclo[2,2,2]octan-3-one]
induction of apoptosis (p53-null Saos-2 cells; 50, 75 and […], no p53 expression): much less efficient | doses inhibitory to colony formation in a mutant p53-dependent manner (Saos-2-His-273 cells [1]; Saos-2-His-273 vs Saos-2): 50 to 100 µM | appearance of PAb240 epitope (unfolding) upon heating [2]: able to prevent unfolding | PAb1620 epitope after heating [2]: preserve the conformation-dependent epitope | DO-1 non-conformational epitope [2]: not affected | induction of apoptosis compared to Saos-2-His-273 cells ([3]; 75 μM): much less prominent | induction of MDM2 and p21 (H1299-His-175 cells; [9]): did not cause any induction | induction of MDM2 and p21 (H1299-His-175 cells; [10]): solid induction of both MDM2 and p21 | growth suppression of mutant p53-expressing cells versus p53 null and wild type p53 cells [5]: more efficiently | growth of cells expressing mutant p53 (growth curves) (Saos-2-His-273 cells [6]; mutant p53 expressed): completely inhibited growth | growth of cells in the absence of mutant p53 expression (Saos-2-His-273 cells [6]; no mutant p53 expression): minor reduction in growth rate | average weight of mice ([7]; 100 mg/kg i.v., after one month of observation, means±SE): 20 ± 0.2 g | changes in behavior or weight ([7]; intravenous injections, 1, 10 and 100 mg/kg daily for 5 days): did not cause any obvious changes in behavior or weight | average tumor volume (Saos-2-His-273 cells [8]; 20 mg/kg i.v. twice a day for three days): 53±48.5 mm^3 | average tumor volume (Saos-2-His-273 cells [8]; intratumor 20 mg/kg twice a day for three days): 5.3±2.7 mm^3 | average tumor volume (Saos-2-His-273 cells [8]; intravenous 100 mg/kg twice a day for three days): 11.7±8 mm^3
